In paper PMC6152131, “Pharmacokinetic Study of Biotransformation Products from an Anxiolytic Fraction of Tilia americana” (Molecules : A Journal of Synthetic Chemistry and Natural …, 2017):

Columns and labels:
[1] = Pharmacokinetic analysis, two-compartment model (PKSolver); assay type: in vivo, ICR mice
Method: The data shown in Table 2 were applied to the program PKSolver. After a single oral administration of 200 mg/kg of the anxiolitic fraction of T. americana, the behavior of the concentration-time data allowed us to determine the main pharmacokinetic parameters under a two-compartment model (Table 3), and the same program provided the graphical behavior of the variables and the adjustment to the two-compartment model.
(§1) To evaluate the suitability of the assay for the pharmacokinetic studies, 200 mg/kg of the active fraction was orally administered to the animals. Ten animals were used in each group at different times (0, 5, 10, 15, 30, 60, 120, 240, 480, 720, and 1440 min). Pharmacokinetic calculations were performed using the observed data. All data was subsequently processed using the PKSolver add-in program for Microsoft Excel written in Visual Basic for Applications. All values obtained were expressed in mean ± standard deviation.
For the pharmacokinetic assay, the selection was made either from a one-compartment or a two-compartment model, with the use of both the Akaike information criterion (AIC) and the Schwarz criterion (SC). Using these two criteria, one can select which model is more suited to being adjusted, to the point where it reaches the lowest values of the AIC or SC criteria, which means that the chosen model is more parsimonious (less parameters required) and best fits the data (low error prediction).

[2] = Stability of flavonoids and biotransformation products in mouse plasma under different handling conditions; assay type: in vitro ADME, mice; settings: for Accuracy Bias 0 h / Observed Conc. 0 h / Accuracy Bias 8 h / Observed Conc. 8 h / Accuracy Bias 24 h / Observed Conc. 24 h: room temperature (25 °C); for Observed Conc. 0 h / Observed Conc. 8 h / Observed Conc. 24 h / Observed Conc. Autosampler (4 °C; 8 h) / Observed Conc. Long-term (−70 °C; 1 month): n = 6; for Accuracy Bias Autosampler (4 °C; 8 h) / Accuracy Bias Long-term (−70°C; 1 month) / Observed Conc. Autosampler (4 °C; 8 h) / Observed Conc. Long-term (−70 °C; 1 month): storage stability
Method: (§2) Plasma dried pulverized samples were extracted with methanol (HPLC grade, Merck). The extracts were filtered with Teflon membrane dimensions 0.45 μm by 13 mm (Millex®-LCR); 20 μL of each filtered sample was injected into the HPLC equipment. The measurements were performed in a (Waters corporation, Milford, CT, USA) 2695 HPLC with a diode array detector (Waters 2996) and processed with the Empower Pro 1.0 software. A Chromolith Performance® RP-18e 100 × 4.6 mm (Merck KGaA, Darmstadt, Germany) was used. The mobile phase consisted of a mixture of acetonitrile and water with the proportion 55:45 and a flow rate of 1 mL/min. The concentrations of the flavonoids and the biotransformation products were obtained by comparison with a pre-built calibration curve at λ = 220 nm.
[…] The investigation enclosed here expected manipulation conditions during all the sample storage and process periods, which included the stability data from the freeze/thaw, bench-top, autosampler, and long–term stability tests.
For all stability studies, fresh QC samples were evaluated by using a freshly prepared standard curve for the measurements. The concentrations obtained from all the stability studies were compared with the fresh QC samples, and the percentage concentration deviation was calculated. The analytes were considered stable in the mouse plasma when the concentration difference between the freshly prepared samples and the stability samples was less than 15%.

[3] = Plasma concentration after a single oral dose of the anxiolytic fraction (HPLC); assay type: in vivo, ICR mice; settings: mouse, plasma, ICR mice, n = 10
Method: Eleven groups of ten animals each were randomly formed. All animals were orally administered with 200 mg/kg of the active fraction. Animals were anaesthetized with ether, and blood samples were obtained from the retroorbital sinus with a heparinized capillary, each group was examined at different times (0, 5, 10, 15, 30, 60, 120, 240, 480, 720, and 1440 min) after the active fraction was administered. […] Then the plasma samples were frozen and lyophilized. The dry plasma was subsequently used to extract and measure the concentration of the flavonoids and biotransformation products.
as §2, §1

[4] = mouse, oral 200 mg/kg anxiolytic fraction, ICR mice plasma, two-compartment model
[5] = oral 200 mg/kg anxiolytic fraction, ICR mice plasma, two-compartment model
[6] = oral 200 mg/kg anxiolytic fraction, ICR mice plasma, two-compartment model, n = 10
[7] = high nominal conc. (7.00; 44.37; 4.50; 31.25 µg/mL)
[8] = low nominal conc. (1.75; 11.02; 1.12; 1.95 µg/mL)
[9] = medium nominal conc. (3.50; 22.18; 2.24; 7.81 µg/mL)

## O=C(O)Cc1ccc(O)c(O)c1 [DOPAC, 3,4-dihydroxyphenylacetic acid]
[1]; after oral administration
  CL/F, times lower than m-HPAA: 30 times
  CL/F, times lower than p-HPAA: 20 times
[1]; [4]
  AUC(0-inf): 3850 µg·h/mL
  Cmax: 7180 ng/mL
  Tmax: 0.215 h
[1]; mouse, oral 200 mg/kg anxiolytic fraction, ICR mice plasma, two-compartment model, read-out: AUC0→1440 (converted)
  AUC(0-t): 146 µg·h/mL
[1]; mouse, oral 200 mg/kg anxiolytic fraction, ICR mice plasma, two-compartment model, read-out: MRT (mean residence time) (converted)
  MRT: 625 h
[1]; mouse, oral 200 mg/kg anxiolytic fraction, ICR mice plasma, two-compartment model, read-out: k10 (apparent first-order elimination rate constant from the central compartment) (converted)
  k el: 5.3e-07 s⁻¹
[1]; mouse, oral 200 mg/kg anxiolytic fraction, ICR mice plasma, two-compartment model, read-out: t1/2β
  half-life: 434 h
[1]; [5]
  CL/F (apparent clearance): 0.0008 (mg/Kg)/(μg/mL)/min
  V/F (apparent volume of distribution): 27.21 (mg/Kg)/(µg/mL)
  k12 (transfer rate constant central to peripheral compartment): 0.002 min⁻¹
  k21 (transfer rate constant peripheral to central compartment): 0.0096 min⁻¹
  ka (apparent first-order absorption rate constant): 0.43 min⁻¹
  t1/2ka (absorption half time): 1.61 min
  t1/2α: 0.9992 h
  α: 0.01 min⁻¹
  β: 2.66e-05 min⁻¹
[1]; [6]
  A (plasma concentration coefficient, central compartment): 1.23 µg/mL
  B (plasma concentration coefficient, peripheral compartment): 6.16 µg/mL
[1]; two-compartment model
  index: relation between rate constants of k12 with respect to k21: 0.20
[2]; high nominal conc.
  Accuracy Bias 0 h: 0.26%
  Accuracy Bias 8 h: 0.25%
  Accuracy Bias 24 h: 0.19%
  Accuracy Bias Autosampler (4 °C; 8 h): 2.23%
  Accuracy Bias Long-term (−70°C; 1 month): 2.11%
[2]; high nominal conc. (rutin 7.00; quercetin glucoside, quercitrin, tiliroside 44.37; kaempferol 4.50; m-HPAA, p-HPAA, DOPAC 31.25 µg/mL)
  Observed Conc. 0 h: 31.61 ± 0.26 µg/mL
[2]; low nominal conc.
  Accuracy Bias 0 h: 0.02%
  Accuracy Bias 8 h: 0.03%
  Accuracy Bias 24 h: 0.03%
  Accuracy Bias Autosampler (4 °C; 8 h): 0.88%
  Accuracy Bias Long-term (−70°C; 1 month): 1.15%
[2]; low nominal conc. (rutin 1.75; quercetin glucoside, quercitrin, tiliroside 11.02; kaempferol 1.12; m-HPAA, p-HPAA, DOPAC 1.95 µg/mL)
  Observed Conc. 0 h: 1.98 ± 0.020 µg/mL
[2]; medium nominal conc.
  Accuracy Bias 0 h: 0.03%
  Accuracy Bias 8 h: 0.03%
  Accuracy Bias 24 h: 0.02%
  Accuracy Bias Autosampler (4 °C; 8 h): 0.38%
  Accuracy Bias Long-term (−70°C; 1 month): 0.58%
[2]; medium nominal conc. (rutin 3.50; quercetin glucoside, quercitrin, tiliroside 22.18; kaempferol 2.24; m-HPAA, p-HPAA, DOPAC 7.81 µg/mL)
  Observed Conc. 0 h: 7.85 ± 0.032 µg/mL
[2]; [7]
  Observed Conc. 8 h: 31.64 ± 0.24 µg/mL
  Observed Conc. 24 h: 31.53 ± 0.19 µg/mL
  Observed Conc. Autosampler (4 °C; 8 h): 31.61 ± 0.19 µg/mL
  Observed Conc. Long-term (−70 °C; 1 month): 31.53 ± 0.25 µg/mL
[2]; [8]
  Observed Conc. 8 h: 1.92 ± 0.02 µg/mL
  Observed Conc. 24 h: 1.91 ± 0.03 µg/mL
  Observed Conc. Autosampler (4 °C; 8 h): 1.91 ± 0.03 µg/mL
  Observed Conc. Long-term (−70 °C; 1 month): 1.99 ± 0.03 µg/mL
[2]; [9]
  Observed Conc. 8 h: 7.86 ± 0.03 µg/mL
  Observed Conc. 24 h: 7.78 ± 0.02 µg/mL
  Observed Conc. Autosampler (4 °C; 8 h): 7.78 ± 0.02 µg/mL
  Observed Conc. Long-term (−70 °C; 1 month): 7.85 ± 0.03 µg/mL
[3]; 5 min after single oral dose of 200 mg/kg of the anxiolytic fraction, ND = not detected
  concentration at 5 min: 6600 ± 430 ng/mL
[3]; 10 min after single oral dose of 200 mg/kg of the anxiolytic fraction
  concentration at 10 min: 6430 ± 350 ng/mL
[3]; 15 min after single oral dose of 200 mg/kg of the anxiolytic fraction
  concentration at 15 min: 7730 ± 610 ng/mL
[3]; 30 min after single oral dose of 200 mg/kg of the anxiolytic fraction
  concentration at 30 min: 7170 ± 520 ng/mL
[3]; 60 min after single oral dose of 200 mg/kg of the anxiolytic fraction
  concentration at 60 min: 6880 ± 430 ng/mL
[3]; 120 min after single oral dose of 200 mg/kg of the anxiolytic fraction
  concentration at 120 min: 6340 ± 410 ng/mL
[3]; 240 min after single oral dose of 200 mg/kg of the anxiolytic fraction
  concentration at 240 min: 6260 ± 320 ng/mL
[3]; 480 min after single oral dose of 200 mg/kg of the anxiolytic fraction
  concentration at 480 min: 6100 ± 340 ng/mL
[3]; 720 min after single oral dose of 200 mg/kg of the anxiolytic fraction
  concentration at 720 min: 6010 ± 540 ng/mL
[3]; 1440 min after single oral dose of 200 mg/kg of the anxiolytic fraction
  concentration at 1440 min: 5930 ± 490 ng/mL
